Bounds are passed on as bounds.

As a reminder, the EC50 is the concentration at which the effect is half-maximal. Read a low EC50 as greater potency.

A short description of the assay: Induction of GK translocation from nucleus to cytoplasm of mouse hepatocytes preincubated for 20 mins followed by glucose challenge measured after 40 mins by Hoechst 33342 staining-based assay.
Consider `Nc1ccc(S(=O)(=O)N2CCN(c3ncc(C(O)(C(F)(F)F)C(F)(F)F)cc3-c3cc[nH]n3)CC2)cn1`, for which a half-maximal effect (EC50) was put at 11200 nM.
`Nc1ccc(S(=O)(=O)N2CCN(c3ncc(C(O)(C(F)(F)F)C(F)(F)F)cc3Br)CC2)cn1`: the response was half-maximal at 5370 nM (EC50).
In the case of `Nc1ccc(S(=O)(=O)N2CCN(c3ncc(C(O)(C(F)(F)F)C(F)(F)F)cc3C#CC3CC3)CC2)cn1`, the EC50 came out at 3350 nM.
The compound `Nc1ccc(S(=O)(=O)N2CCN(c3ncc(C(O)(C(F)(F)F)C(F)(F)F)cc3C#CCO)CC2)cn1` yielded an EC50 of 510 nM.
`COCC#Cc1cc(C(O)(C(F)(F)F)C(F)(F)F)cnc1N1CCN(S(=O)(=O)c2ccc(N)nc2)CC1` gave an EC50 of 254 nM.
In turn, `CC(C)(O)C#Cc1cc(C(O)(C(F)(F)F)C(F)(F)F)cnc1N1CCN(S(=O)(=O)c2ccc(N)nc2)CC1` came in with an EC50 of 2140 nM. Compared with the last compound, the EC50 is about 8.4-fold higher.
The value for `Nc1ccc(S(=O)(=O)N2CCN(c3ncc(C(O)(C(F)(F)F)C(F)(F)F)cc3C#CCCO)CC2)cn1` was 2000 nM; that for `Nc1ccc(S(=O)(=O)N2CCN(c3ncc(C(O)(C(F)(F)F)C(F)(F)F)cc3-c3ccc4[nH]ncc4c3)CC2)cn1` was 2630 nM; that for `Nc1ccc(S(=O)(=O)N2CCN(c3ncc(C(O)(C(F)(F)F)C(F)(F)F)cc3-c3cc4ccccc4[nH]3)CC2)cn1` was 1120 nM.
Compound `Nc1ccc(S(=O)(=O)N2CCN(c3ncc(C(O)(C(F)(F)F)C(F)(F)F)cc3-c3cc4ccccc4s3)CC2)cn1` showed an EC50 of 2750 nM.
Turning to `Nc1ccc(S(=O)(=O)N2CCN(c3ccc(C(O)(C(F)(F)F)C(F)(F)F)cn3)CC2)cn1`, the EC50 is > 12500 nM.
As for `Nc1ccc(S(=O)(=O)N2CCN(c3ncc(C(O)(C(F)(F)F)C(F)(F)F)cc3Cl)CC2)cn1`, the EC50 was 6360 nM.
On to `CN1C(=O)Cc2cc(-c3cc(C(O)(C(F)(F)F)C(F)(F)F)cnc3N3CCN(S(=O)(=O)c4ccc(N)nc4)CC3)ccc21`, for which it took 234 nM to reach a half-maximal effect (EC50). This EC50 is about 27-fold lower than that of the compound before.
`Nc1ccc(S(=O)(=O)N2CCN(c3ncc(C(O)(C(F)(F)F)C(F)(F)F)cc3-c3ccc4c(c3)CC(=O)N4)CC2)cn1` showed an EC50 of 309 nM.
The compound `Cc1nc2cc(-c3cc(C(O)(C(F)(F)F)C(F)(F)F)cnc3N3CCN(S(=O)(=O)c4ccc(N)nc4)CC3)ccc2o1` displayed an EC50 of 351 nM.
Compound `Nc1ccc(S(=O)(=O)N2CCN(c3ncc(C(O)(C(F)(F)F)C(F)(F)F)cc3-c3ccc4ocnc4c3)CC2)cn1` came in with an EC50 of 416 nM.
For `Nc1ccc(S(=O)(=O)N2CCN(c3ncc(C(O)(C(F)(F)F)C(F)(F)F)cc3-c3ccc4scnc4c3)CC2)cn1`, the EC50 is 1150 nM.
`Nc1ccc(S(=O)(=O)N2CCN(c3ncc(C(O)(C(F)(F)F)C(F)(F)F)cc3-c3ccc4sccc4c3)CC2)cn1`: the EC50 is > 12500 nM.
In turn, `COc1cncc(-c2cc(C(O)(C(F)(F)F)C(F)(F)F)cnc2N2CCN(S(=O)(=O)c3ccc(N)nc3)CC2)c1` came in with an EC50 of 1400 nM.
In turn, `COc1ccc(-c2cc(C(O)(C(F)(F)F)C(F)(F)F)cnc2N2CCN(S(=O)(=O)c3ccc(N)nc3)CC2)cn1` had an EC50 of 1400 nM.
`Cc1ccc(-c2cc(C(O)(C(F)(F)F)C(F)(F)F)cnc2N2CCN(S(=O)(=O)c3ccc(N)nc3)CC2)cn1` showed an EC50 of 4680 nM.
The result for `Cc1cncc(-c2cc(C(O)(C(F)(F)F)C(F)(F)F)cnc2N2CCN(S(=O)(=O)c3ccc(N)nc3)CC2)c1` reads 794 nM.
For `Nc1ccc(S(=O)(=O)N2CCN(c3ncc(C(O)(C(F)(F)F)C(F)(F)F)cc3-c3cncc(F)c3)CC2)cn1`, the EC50 is > 12500 nM.
Take `Nc1ccc(S(=O)(=O)N2CCN(c3ncc(C(O)(C(F)(F)F)C(F)(F)F)cc3-c3cnccc3F)CC2)cn1`: the response was half-maximal at 1290 nM (EC50).
For `Nc1ccc(S(=O)(=O)N2CCN(c3ncc(C(O)(C(F)(F)F)C(F)(F)F)cc3-c3ccncc3)CC2)cn1`, the EC50 came to 933 nM.
The value for `CS(=O)(=O)c1ccc(-c2cc(C(O)(C(F)(F)F)C(F)(F)F)cnc2N2CCN(S(=O)(=O)c3ccc(N)nc3)CC2)cc1` was 2950 nM; that for `NC(=O)c1cccc(-c2cc(C(O)(C(F)(F)F)C(F)(F)F)cnc2N2CCN(S(=O)(=O)c3ccc(N)nc3)CC2)c1` was 766 nM; that for `Nc1ccc(S(=O)(=O)N2CCN(c3ncc(C(O)(C(F)(F)F)C(F)(F)F)cc3-c3ccccc3O)CC2)cn1` was 565 nM.
The value for `Nc1ccc(S(=O)(=O)N2CCN(c3ncc(C(O)(C(F)(F)F)C(F)(F)F)cc3-c3ccc(F)cc3)CC2)cn1` was 1380 nM.
`Nc1ccc(S(=O)(=O)N2CCN(c3ncc(C(O)(C(F)(F)F)C(F)(F)F)cc3-c3cccc(F)c3)CC2)cn1` registered an EC50 of 2800 nM.
The compound `Nc1ccc(S(=O)(=O)N2CCN(c3ncc(C(O)(C(F)(F)F)C(F)(F)F)cc3-c3ccccc3F)CC2)cn1` had an EC50 of 803 nM. Compared with the last compound, the EC50 is about 3.5-fold lower.
`Nc1ccc(S(=O)(=O)N2CCN(c3ncc(C(O)(C(F)(F)F)C(F)(F)F)cc3-c3ccccc3)CC2)cn1` displayed an EC50 of 776 nM.
Compound `Cc1csc(-c2cc(C(O)(C(F)(F)F)C(F)(F)F)cnc2N2CCN(S(=O)(=O)c3ccc(N)nc3)CC2)c1` returned an EC50 of 1190 nM.
In the case of `Nc1ccc(S(=O)(=O)N2CCN(c3ncc(C(O)(C(F)(F)F)C(F)(F)F)cc3-c3ccoc3)CC2)cn1`, the EC50 stood at 1730 nM.
In the case of `Cc1c(-c2cc(C(O)(C(F)(F)F)C(F)(F)F)cnc2N2CCN(S(=O)(=O)c3ccc(N)nc3)CC2)cnn1C`, the concentration for a half-maximal effect (EC50) turned out to be 1260 nM. The EC50 values of the last two compounds are within 1.5-fold of each other.
`CC(C)(C)n1cc(-c2cc(C(O)(C(F)(F)F)C(F)(F)F)cnc2N2CCN(S(=O)(=O)c3ccc(N)nc3)CC2)cn1` yielded an EC50 of 2450 nM.
As for `CC(C)n1cc(-c2cc(C(O)(C(F)(F)F)C(F)(F)F)cnc2N2CCN(S(=O)(=O)c3ccc(N)nc3)CC2)cn1`, the EC50 stood at 1080 nM.
Take `CCn1cc(-c2cc(C(O)(C(F)(F)F)C(F)(F)F)cnc2N2CCN(S(=O)(=O)c3ccc(N)nc3)CC2)cn1`: the EC50 worked out at 81 nM.
As for `Cn1cc(-c2cc(C(O)(C(F)(F)F)C(F)(F)F)cnc2N2CCN(S(=O)(=O)c3ccc(N)nc3)CC2)cn1`, the response was half-maximal at 52 nM (EC50).

Values taken from BindingDB's records for doi:10.1021/jm5001979 (Amgen, 2014).
